# Patent US8093218B2, “Peptide derived from vascular endothelial growth factor receptor-1 binding integrin α5β1 having proangiogenic activity” (Provincia Italiana della Congregazione dei Figli …, priority 2006, dated 2012)
# “Also recorded” adds a separate entry of the source.
# T1: VEGF (Homo sapiens, UniProt P15692)
# T1 sequence (P15692 207-320 limits assumed): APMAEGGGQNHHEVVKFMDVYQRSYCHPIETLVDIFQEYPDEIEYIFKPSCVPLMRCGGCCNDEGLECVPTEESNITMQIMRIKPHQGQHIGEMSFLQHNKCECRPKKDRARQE
# B1: VEGFR-1/Fc: sVEGFR-1 fusion protein with the Fc domain of human immunoglobulins (protein)
# chain: SKLKDPELSLKGTQHIMQAGQTLHLQCRGEAAHKWSLPEMVSKESERLSITKSACGRNGKQFCSTLTLNTAQANHTGFYSCKYLAVPTSKKKETESAIYIFISDTGRPFVEMYSEIPEIIHMTEGRELVIPCRVTSPNITVTLKKFPLDTLIPDGKRIIWDSRKGFIISNATYKEIGLLTCEATVNGHLYKTNYLTHRQTNTIIDVQISTPRPVKLLRGHTLVLNCTATTPLNTRVQMTWSYPDEKNKRASVRRRIDQSNSHANIFYSVLTIDKMQNKDKGLYTCRVRSGPSFKSVNTSVHIYDKAFITVKHRKQQVLETVAGKRSYRLSMKVKAFPSPEVVWLKDGLPATEKSARYLTRGYSLIIKDVTEEDAGNYTILLSIKQSNVFKNLTATLIVNVKPQIYEKAVSSFPDPALYPLGSRQILTCTAYGIPQPTIKWFWHPCNHNHSEARCDFCSNNEESFILDADSNMGNRIESITQRMAIIEGKNKMASTLVVADSRISGIYICIASNKVGTVGRNISFYITDVPNGFHVNLEKMPTEGEDLKLSCTVNKFLYRDVTWILLRTVNNRTMHYSISKQKMAITKEHSITLNLTIMNVSLQDSGTYACRARNVYTGEEILQKKEITIRGEHCNKKAVFSRISKFKSTRNDCTTQSNVKH
# modifications: left off: a dimerising Fc or GST
# notes: sVEGFR-1 fusion protein with the Fc domain of human immunoglobulins
# B2: dII recombinant: recombinant protein corresponding to VEGFR-1 domain II (residues 129-229), produced in SF9 cells (protein)
# chain: SDTGRPFVEMYSEIPEIIHMTEGRELVIPCRVTSPNITVTLKKFPLDTLIPDGKRIIWDSRKGFIISNATYKEIGLLTCEATVNGHLYKTNYLTHRQTNTI
# modifications: left off: small tags and cut ends
# notes: recombinant protein corresponding to VEGFR-1 domain II (residues 129-229), produced in SF9 cells
# B3: peptide 12 (NYLTHRQ, VEGFR-1 residues 219-225) (peptide)
# peptide: NYLTHRQ
# notes: Covalently linked to plates or coated on magnetic beads, or added in solution to HUVEC; also called P12; original peptide 12
# Key:
# [1] = test system: HUVEC; test: cellular adhesion of HUVEC to alanine-substituted peptide 12 mutants; assay type: cell-based, human; details: mutant peptides covalently linked to plates
# Experimental: These peptides were tested for their ability to directly support the cellular adhesion. The ten peptides were covalently linked to plates, and were also tested, as negative controls, a peptide “scrambled” in which the amino acid sequence of the peptide 12 was modified (see Table 1.) (sP12) and BSA. The HUVEC were plated and allow to adhere. The results were expressed as percentage of the cellular adhesion observed on plates covered with the peptide 12.
# [2] = molecular target: T2, integrin α5β1 (Homo sapiens, UniProt P05556+P08648); test: solid-phase binding of integrin α5β1 to alanine-substituted peptide 12 mutants; details: purified integrin α5β1 on plates covered with mutant peptides
# T2 sequence (P08648 42-894 limits assumed): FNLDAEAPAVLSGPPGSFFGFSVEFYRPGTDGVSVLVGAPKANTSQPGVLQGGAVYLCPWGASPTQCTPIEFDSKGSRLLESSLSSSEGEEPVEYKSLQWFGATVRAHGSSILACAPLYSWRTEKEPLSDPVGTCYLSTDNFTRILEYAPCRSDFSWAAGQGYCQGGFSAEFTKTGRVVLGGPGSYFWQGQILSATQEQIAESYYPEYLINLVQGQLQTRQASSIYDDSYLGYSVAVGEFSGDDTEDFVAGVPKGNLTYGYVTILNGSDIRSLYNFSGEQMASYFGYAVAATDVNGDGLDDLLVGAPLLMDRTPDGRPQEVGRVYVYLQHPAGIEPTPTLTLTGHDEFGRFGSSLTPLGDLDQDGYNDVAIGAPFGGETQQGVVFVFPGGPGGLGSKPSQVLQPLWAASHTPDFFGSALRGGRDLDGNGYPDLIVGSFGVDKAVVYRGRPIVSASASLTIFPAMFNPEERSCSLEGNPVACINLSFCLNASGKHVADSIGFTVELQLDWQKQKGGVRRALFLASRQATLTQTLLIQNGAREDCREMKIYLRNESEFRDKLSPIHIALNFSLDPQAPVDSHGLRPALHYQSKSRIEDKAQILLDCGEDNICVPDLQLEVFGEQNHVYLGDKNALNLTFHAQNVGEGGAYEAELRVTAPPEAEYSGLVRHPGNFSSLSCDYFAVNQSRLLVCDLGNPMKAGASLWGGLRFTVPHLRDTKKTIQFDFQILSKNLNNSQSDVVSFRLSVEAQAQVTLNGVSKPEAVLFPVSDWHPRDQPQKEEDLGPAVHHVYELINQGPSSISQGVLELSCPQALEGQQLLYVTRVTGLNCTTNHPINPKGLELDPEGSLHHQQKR
# T2 sequence (P08648 895-1049 partner limits assumed): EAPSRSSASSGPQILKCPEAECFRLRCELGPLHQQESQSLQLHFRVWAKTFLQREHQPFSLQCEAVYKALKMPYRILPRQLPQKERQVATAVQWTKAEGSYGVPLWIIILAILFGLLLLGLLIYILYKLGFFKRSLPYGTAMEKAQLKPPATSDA
# T2 sequence (P05556 21-798): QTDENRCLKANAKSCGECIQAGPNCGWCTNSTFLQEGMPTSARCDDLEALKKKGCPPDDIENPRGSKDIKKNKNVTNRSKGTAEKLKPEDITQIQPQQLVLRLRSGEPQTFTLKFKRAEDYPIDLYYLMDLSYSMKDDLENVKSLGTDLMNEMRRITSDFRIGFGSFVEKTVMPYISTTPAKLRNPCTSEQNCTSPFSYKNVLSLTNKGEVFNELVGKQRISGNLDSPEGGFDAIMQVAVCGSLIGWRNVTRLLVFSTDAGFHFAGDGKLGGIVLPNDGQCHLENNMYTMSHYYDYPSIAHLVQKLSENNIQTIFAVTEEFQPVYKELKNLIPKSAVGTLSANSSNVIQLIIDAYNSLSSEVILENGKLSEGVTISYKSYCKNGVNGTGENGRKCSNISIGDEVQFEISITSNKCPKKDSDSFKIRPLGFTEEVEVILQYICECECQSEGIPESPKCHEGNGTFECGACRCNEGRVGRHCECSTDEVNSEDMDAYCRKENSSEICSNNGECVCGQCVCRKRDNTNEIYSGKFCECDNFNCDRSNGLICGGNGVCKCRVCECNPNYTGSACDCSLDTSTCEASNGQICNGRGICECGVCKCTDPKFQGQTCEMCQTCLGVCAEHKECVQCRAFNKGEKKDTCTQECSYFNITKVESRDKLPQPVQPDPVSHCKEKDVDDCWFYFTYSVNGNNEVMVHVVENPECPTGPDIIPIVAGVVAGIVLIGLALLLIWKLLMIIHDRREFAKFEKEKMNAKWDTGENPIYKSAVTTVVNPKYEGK
# Experimental: Was also assessed the direct binding to integrin α5β1 with mutant peptides by a binding test on solid phase. The integrin α5β1 purified was added to plates covered with the various peptides and the amount bound was measured using an antibody anti-integrin α5β1 with a calorimetric method. The data were expressed as percentage of protein linked observed on plates covered with the original peptide 12.
# [3] = test system: HUVEC migration induced from VEGFR-1/Fc; test: EC migration in Boyden chambers induced by VEGFR-1/Fc; assay type: cell-based, human; details: HUVEC pre-incubated with peptide
# Experimental: In order to investigate the ability to peptide 12 to influence the migration of the EC induced from VEGFR-1/Fc, a process mediated from the integrin α5β1, the HUVEC were pre-incubated with peptide 12 and peptide 1 and placed in Boyden chambers in order to analyze the migration induced from VEGFR-1/Fc or fibronectin (FN). Data represent the average of 14 microscopic fields and are referred to as percentage of inhibition compared to the migration observed in the absence of peptides.
# [4] = test system: HUVEC; test: formation of tubules of EC in Type I collagen gel; assay type: cell-based, human
# Experimental: It was tested the ability of the peptide 12 to induce the formation of tubules of EC. HUVEC cells were plated on 24 wells plates previously covered with a mixture of gel Type I collagen, in the absence or presence of 500 μg/ml peptide 12 or peptide 1. A second layer of gel Type I collagen was placed on the adherent cells. As shown, in the absence or presence of peptides, were added, in the culture medium, different concentrations of VEGF (40 or 100 nM), or 20 μg/ml of protein VEGFR-1/Fc.
# [5] = test system: HUVEC adhesion to peptide 12; test: adhesion of HUVEC to peptide 12 in presence of chelating agents or anti-integrin antibodies; assay type: cell-based, human; details: HUVEC on plates covered with peptide 12
# Experimental: The peptide 12 or the BSA, as non-specific adhesion control, were linked on plates and the HUVEC added in the presence of chelating agents (EDTA or EGTA).
# The HUVEC were pre-incubated with an antibody against the integrin α5β1 or versus the integrinic subunit α6 and left to adhere on plates covered with peptide 12 or BSA.
# [6] = test system: HUVEC adhesion to VEGFR-1/Fc; test: inhibition by peptides of EC adhesion to VEGFR-1/Fc; assay type: cell-based, human; details: peptide added to HUVEC suspension before plating
# Experimental: (§1) In order to test the ability of the twelve chosen peptides to inhibit the adhesion of the EC to VEGFR-1 mediated from the integrin α5β1, every peptide was added to one suspension of HUVEC before plated on dishes covered with VEGFR-1/Fc or fibronectin (FN). The data were indicated as percentage of adhesion, calculated to the number of cells adhered on the substrate itself in absence of peptides.
# [7] = test system: angiogenesis; details: previously published; cited from earlier work
# [8] = molecular target: T1, VEGF; details: previously published; cited from earlier work
# [9] = molecular target: T2, integrin α5β1; test: integrin α5β1 aggregation around peptide-coated magnetic beads (immunostaining); assay type: cell-based; design: endogenous in cells; host or cells: HUVEC; details: magnetic beads coated with peptide, immunostaining for integrin α5β1
# Experimental: The integrins not linked are widely distributed on cellular membrane, but after the ligand binding and the activation merged in distinct structures called focal contacts and ECM contact.
# (§2) It was examined whether the peptide 12 was able to induce aggregation of integrin α5β1 after the binding. EC adherent cells were incubated with magnetic beads coated with peptide 12, or peptide RGD or peptide RGE respectively as positive and negative controls, and immunostained with an antibody against integrin α5β1.
# [10] = test system: HUVEC adhesion to fibronectin (FN); test: inhibition by peptides of EC adhesion to fibronectin; assay type: cell-based, human; details: peptide added to HUVEC suspension before plating
# Experimental: as §1
# [11] = molecular target: T2, integrin α5β1; test: solid-phase binding of purified integrin α5β1 to plates covered with dII or VEGFR-1/Fc; details: anti-integrin α5β1 antibody, colorimetric, absorbance at 405 nm
# Experimental: The direct bind of the integrin α5β1 to the domain had been determined also with binding test on solid phase. The purified integrin α5β1 was added to plates covered with dII or with VEGFR-1/Fc like positive control and the integrin bound was measured using an antibody anti-integrin α5β1 and a colorimetric test.
# [12] = test system: HUVEC; test: adhesion of HUVEC on plates covered with recombinant protein; assay type: cell-based, human; details: plates covered with the protein; absorbance at 540 nm
# Experimental: The endothelial cells derived from human umbilical vein (HUVEC) were used to examine ability of the domain II to support the adhesion of EC in plates covered with the recombinant protein.
# The HUVEC were incubated on plates covered with VEGFR-1 FC, with the domain II (dII) recombinant, with fibronectin (FN) or bovine serum albumin (BSA). The protein VEGFR-1/Fc, and the fibronectin were used as positive controls and BSA as negative control.
# The cells assayed were coloured and the absorbance was measured.
# [13] = molecular target: T3, integrin α5β1 on endothelial cells derived from human umbilical vein (HUVEC) (human, UniProt P08648 42-1049; P05556 21-798); test: magnetic beads coated with peptide on adherent HUVEC, immunostaining for integrin α5β1
# T3 construct: whole, on cells; Endogenous integrin on HUVEC in the adhesion, migration and bead tests; also called integrin α5β1 of the EC
# T3 sequence (P08648 42-1049, chain 1 of 2): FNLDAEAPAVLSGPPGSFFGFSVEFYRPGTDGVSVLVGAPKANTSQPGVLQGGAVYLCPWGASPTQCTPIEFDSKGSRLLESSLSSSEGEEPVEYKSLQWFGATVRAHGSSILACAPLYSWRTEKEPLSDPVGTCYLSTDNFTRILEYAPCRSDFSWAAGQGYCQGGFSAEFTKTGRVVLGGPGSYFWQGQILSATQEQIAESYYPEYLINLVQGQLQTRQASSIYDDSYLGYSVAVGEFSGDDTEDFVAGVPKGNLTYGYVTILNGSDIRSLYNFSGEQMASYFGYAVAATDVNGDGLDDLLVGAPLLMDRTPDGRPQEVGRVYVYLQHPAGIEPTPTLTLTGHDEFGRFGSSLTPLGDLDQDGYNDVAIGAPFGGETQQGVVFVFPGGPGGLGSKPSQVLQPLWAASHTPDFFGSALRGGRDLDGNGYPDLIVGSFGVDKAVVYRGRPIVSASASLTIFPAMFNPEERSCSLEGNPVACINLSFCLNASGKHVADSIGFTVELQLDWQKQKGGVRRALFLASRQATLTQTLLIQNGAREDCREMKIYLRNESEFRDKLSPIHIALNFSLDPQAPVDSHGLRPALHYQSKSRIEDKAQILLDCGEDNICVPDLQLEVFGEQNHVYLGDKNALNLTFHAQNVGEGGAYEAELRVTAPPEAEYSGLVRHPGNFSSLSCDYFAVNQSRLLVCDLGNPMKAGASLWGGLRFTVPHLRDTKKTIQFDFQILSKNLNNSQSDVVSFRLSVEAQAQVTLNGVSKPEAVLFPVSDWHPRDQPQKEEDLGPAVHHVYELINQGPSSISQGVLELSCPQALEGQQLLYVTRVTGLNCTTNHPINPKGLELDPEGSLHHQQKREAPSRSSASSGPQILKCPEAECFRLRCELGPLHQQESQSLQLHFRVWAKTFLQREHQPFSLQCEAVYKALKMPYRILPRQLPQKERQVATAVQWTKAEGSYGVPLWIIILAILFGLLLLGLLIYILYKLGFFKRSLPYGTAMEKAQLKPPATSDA
# T3 sequence (P05556 21-798, chain 2 of 2): as the sequence (P05556 21-798) above
# Experimental: as §2
molecule,measurement,setting,value
Y220A: peptide 12 with Tyr 220 replaced with alanine (NALTHRQ),cellular adhesion to mutant peptide relative to peptide 12,[1],significantly reduce
same,cellular adhesion to mutant peptide relative to peptide 12,[1]; listed as Tyr 220 with ALA,completely abolished cellular adhesion
same,role of replaced residue in integrin α5β1 binding to mutant peptide relative to peptide 12,[2],residue more critical to the integrin binding
"GRPFVEMYSE (listed as Homo sapiens) [peptide 1, used as negative control]",inhibition of EC migration induced by VEGFR-1/Fc,[3],completely ineffective
same,effect on VEGF-induced tubule formation,[4]; 500 μg/ml peptide with VEGF 40 nM,neither increased the effect of VEGF
same,induction of formation of tubules of EC,"[4]; 500 μg/ml peptide, collagen I matrix",did not induce the formation of tubules
"O=C(O)CN(CCN(CC(=O)O)CC(=O)O)CC(=O)O [EDTA, reference compound]",effect of agent on adhesion of EC to peptide 12,[5],completely abolished adhesion of EC
His 223 peptide mutant in Ala: peptide 12 with His 223 mutated to alanine (NYLTARQ),cellular adhesion to mutant peptide relative to peptide 12,[1],comparable
same,cellular adhesion to mutant peptide relative to peptide 12,[1]; listed as His 223,significantly reduce
same,role of replaced residue in integrin α5β1 binding to mutant peptide relative to peptide 12,[2],important in supporting the protein/protein interaction
NITVTLKKFPL (listed as Homo sapiens) [peptide 5],inhibition of adhesion of EC to VEGFR-1/Fc,[6],effectively blocked; also recorded: inhibit cellular adhesion to sVEGFR-1
same,angiogenesis inhibitor activity,[7],act as an angiogenesis inhibitor
same,binding to VEGF / inhibition of VEGF binding to its receptors,[8],without binding to VEGF or inhibiting VEGF binding to its receptors
"RGE [peptide RGE, reference compound]",integrin α5β1 aggregation / bead attachment on EC,[9],No beads covered with the peptide RGE was attached with HUVEC
KFPLDTLIPDG (listed as Homo sapiens) [peptide 7],inhibition of adhesion of EC to VEGFR-1/Fc,[6],effectively blocked; also recorded: inhibit cellular adhesion to sVEGFR-1
same,inhibition of adhesion of EC to fibronectin,[10],partially inhibit
TEGRELVIPARVT (listed as Homo sapiens) [peptide 4],inhibition of adhesion of EC to VEGFR-1/Fc,[6],effectively blocked; also recorded: inhibit cellular adhesion to sVEGFR-1
same,inhibition of adhesion of EC to fibronectin,[10],partially inhibit
"O=C(O)CN(CCOCCOCCN(CC(=O)O)CC(=O)O)CC(=O)O [EGTA, reference compound]",effect of agent on adhesion of EC to peptide 12,[5],completely abolished adhesion of EC
B1,amount of integrin α5β1 bound to coated protein,[11],a similar amount of integrin interacted
same,effect of VEGFR-1/Fc on constitution of tubules,[4]; 20 μg/ml VEGFR-1/Fc in culture medium,strong inhibition of the constitution of tubules
B2,adhesion of HUVEC to coated protein,[12],supported the adhesion of the HUVEC
same,amount of integrin α5β1 bound to coated protein,[11],a similar amount of integrin interacted
B3,binding result,[13],binds
